Test: DPPH radical scavenging antioxidant test
Format: biochemical
Conditions: for Inhibition (radical scavenging inhibition): 0.2 mL DPPH (0.75 mM), compound 3 μM in ethanol, 30 minutes in the dark, 517 nm
Method: The antioxidant properties of the 8-((4-hydroxynaphthalen-1-yl)diazenyl)naphthalene-1,3-disulfonic acid compound were studied by adding 0.2 mL DPPH (0.75 mM)) to 8-((4-hydroxynaphthalen-1-yl)diazenyl)naphthalene-1,3-disulfonic acid (III) (3 μM) in ethanol. After 30 minutes of incubation in the dark, the absorbance was read against a blank at 517 nm. Ascorbic acid (vitamin C) was used as standard antioxidants (positive control). A blank sample was prepared by 0.2 ml of DPPH in 3 mL ethanol. A negative control sample was run using ethanol instead of the sample. The radical scavenging inhibition was calculated using the following equation: […]

For `O=S(=O)(O)c1cc(S(=O)(=O)O)c2c(/N=N/c3ccc(O)c4ccccc34)cccc2c1` [Product III, 8-((4-hydroxynaphthalen-1-yl)diazenyl)naphthalene-1,3-disulfonic acid], the “Inhibition (radical scavenging inhibition)” value was 52% and the “antioxidant potential (vanishing DPPH radical colors at 517 nm)” value (DPPH in vitro test, vitamin C as positive control) was “high potential as an antioxidant compared to vitamin C”.

For `O=C1O[C@H]([C@@H](O)CO)C(O)=C1O` [vit c, Ascorbic acid, reference compound], the “Inhibition (radical scavenging inhibition)” value was 74%.

Reference: patent US11970437B1, “8-((4-hydroxynaphthalen-1-yl)diazenyl)naphthalene-1,3-disulfonic acid as an antioxidant compound” (KING FAISAL UNIVERSITY, priority 2023, dated 2024)
